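Values below derive from 48-hour exposures of cells grown in 96-well plates, with endpoints linearly interpolated between the two concentrations bracketing the appropriate inhibition level. At the TGI there is no net growth.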
Key:
Test in all cases: growth of human tumour cells (NCI), 48 h
A549 NSCLC = system: A549 NSCLC
ACHN renal = system: ACHN renal
CAKI-1 renal = system: CAKI-1 renal
COLO 205 colon = system: COLO 205 colon
DU-145 prostate = system: DU-145 prostate
EKVX NSCLC = system: EKVX NSCLC
HCT-116 colon = system: HCT-116 colon
HCT-15 colon = system: HCT-15 colon
HOP-92 NSCLC = system: HOP-92 NSCLC
HT29 colon = system: HT29 colon
IGROV1 ovarian = system: IGROV1 ovarian
KM12 colon = system: KM12 colon
M14 melanoma = system: M14 melanoma
MDA-MB-231 breast = system: MDA-MB-231 breast
MDA-MB-435 = system: MDA-MB-435
MDA-N = system: MDA-N
NCI-H226 lung = system: NCI-H226 lung
NCI-H23 lung = system: NCI-H23 lung
NCI/ADR-RES ovarian = system: NCI/ADR-RES ovarian
OVCAR-3 ovarian = system: OVCAR-3 ovarian
OVCAR-4 ovarian = system: OVCAR-4 ovarian
OVCAR-5 ovarian = system: OVCAR-5 ovarian
OVCAR-8 ovarian = system: OVCAR-8 ovarian
PC-3 prostate = system: PC-3 prostate
RXF 393 renal = system: RXF 393 renal
SF-268 CNS = system: SF-268 CNS
SF-295 CNS = system: SF-295 CNS
SF-539 CNS = system: SF-539 CNS
SK-MEL-28 melanoma = system: SK-MEL-28 melanoma
SK-MEL-5 melanoma = system: SK-MEL-5 melanoma
SN12C renal = system: SN12C renal
SNB-19 CNS = system: SNB-19 CNS
SNB-75 CNS = system: SNB-75 CNS
SW-620 colon = system: SW-620 colon
TK-10 renal = system: TK-10 renal
U251 CNS = system: U251 CNS
786-0 renal = system: 786-0 renal
A498 renal = system: A498 renal
CCRF-CEM leukemia = system: CCRF-CEM leukemia
HL-60(TB) leukemia = system: HL-60(TB) leukemia
HOP-62 NSCLC = system: HOP-62 NSCLC
HS 578T breast = system: HS 578T breast
LOX IMVI melanoma = system: LOX IMVI melanoma
MALME-3M melanoma = system: MALME-3M melanoma
MCF7 breast = system: MCF7 breast
MOLT-4 leukemia = system: MOLT-4 leukemia
NCI-H522 lung = system: NCI-H522 lung
SK-MEL-2 melanoma = system: SK-MEL-2 melanoma
SK-OV-3 ovarian = system: SK-OV-3 ovarian
T-47D breast = system: T-47D breast
UACC-257 melanoma = system: UACC-257 melanoma
UACC-62 melanoma = system: UACC-62 melanoma
UO-31 renal = system: UO-31 renal

CCC1=[N+]([O-])C(C)(C)NC1(C)C
TGI (A549 NSCLC): > 10 µM
TGI (ACHN renal): > 10 µM
TGI (CAKI-1 renal): > 10 µM
TGI (COLO 205 colon): > 10 µM
TGI (DU-145 prostate): > 10 µM
TGI (EKVX NSCLC): > 10 µM
TGI (HCT-116 colon): > 10 µM
TGI (HCT-15 colon): > 10 µM
TGI (HOP-92 NSCLC): > 10 µM
TGI (HT29 colon): > 10 µM
TGI (IGROV1 ovarian): > 10 µM
TGI (KM12 colon): > 10 µM
TGI (M14 melanoma): > 10 µM
TGI (MDA-MB-231 breast): > 10 µM
TGI (MDA-MB-435): > 10 µM
TGI (MDA-N): > 10 µM
TGI (NCI-H226 lung): > 10 µM
TGI (NCI-H23 lung): > 10 µM
TGI (NCI/ADR-RES ovarian): > 10 µM
TGI (OVCAR-3 ovarian): > 10 µM
TGI (OVCAR-4 ovarian): > 10 µM
TGI (OVCAR-5 ovarian): > 10 µM
TGI (OVCAR-8 ovarian): > 10 µM
TGI (PC-3 prostate): > 10 µM
TGI (RXF 393 renal): > 10 µM
TGI (SF-268 CNS): > 10 µM
TGI (SF-295 CNS): > 10 µM
TGI (SF-539 CNS): > 10 µM
TGI (SK-MEL-28 melanoma): > 10 µM
TGI (SK-MEL-5 melanoma): > 10 µM
TGI (SN12C renal): > 10 µM
TGI (SNB-19 CNS): > 10 µM
TGI (SNB-75 CNS): > 10 µM
TGI (SW-620 colon): > 10 µM
TGI (TK-10 renal): > 10 µM
TGI (U251 CNS): > 10 µM

COC(=O)C1(C(=O)OC)CC2=C(S(=O)(=O)c3ccccc3)C[C@H](C#N)[C@H]2C1
TGI (786-0 renal): > 100 µM
TGI (A498 renal): > 100 µM
TGI (A549 NSCLC): > 100 µM
TGI (ACHN renal): > 100 µM
TGI (CAKI-1 renal): > 100 µM
TGI (CCRF-CEM leukemia): > 100 µM
TGI (COLO 205 colon): > 100 µM
TGI (DU-145 prostate): > 100 µM
TGI (EKVX NSCLC): > 100 µM
TGI (HCT-116 colon): > 100 µM
TGI (HCT-15 colon): > 100 µM
TGI (HL-60(TB) leukemia): > 100 µM
TGI (HOP-62 NSCLC): > 100 µM
TGI (HOP-92 NSCLC): > 100 µM
TGI (HS 578T breast): > 100 µM
TGI (HT29 colon): > 100 µM
TGI (IGROV1 ovarian): > 100 µM
TGI (KM12 colon): > 100 µM
TGI (LOX IMVI melanoma): > 100 µM
TGI (M14 melanoma): > 100 µM
TGI (MALME-3M melanoma): > 100 µM
TGI (MCF7 breast): > 100 µM
TGI (MDA-MB-231 breast): > 100 µM
TGI (MDA-MB-435): > 100 µM
TGI (MDA-N): > 100 µM
TGI (MOLT-4 leukemia): > 100 µM
TGI (NCI-H226 lung): > 100 µM
TGI (NCI-H23 lung): > 100 µM
TGI (NCI-H522 lung): > 100 µM
TGI (NCI/ADR-RES ovarian): > 100 µM
TGI (OVCAR-4 ovarian): > 100 µM
TGI (OVCAR-5 ovarian): > 100 µM
TGI (OVCAR-8 ovarian): > 100 µM
TGI (PC-3 prostate): > 100 µM
TGI (RXF 393 renal): > 100 µM
TGI (SF-268 CNS): > 100 µM
TGI (SF-295 CNS): > 100 µM
TGI (SF-539 CNS): > 100 µM
TGI (SK-MEL-2 melanoma): > 100 µM
TGI (SK-MEL-28 melanoma): > 100 µM
TGI (SK-MEL-5 melanoma): > 100 µM
TGI (SK-OV-3 ovarian): > 100 µM
TGI (SN12C renal): > 100 µM
TGI (SNB-19 CNS): > 100 µM
TGI (SNB-75 CNS): > 100 µM
TGI (SW-620 colon): > 100 µM
TGI (T-47D breast): > 100 µM
TGI (TK-10 renal): > 100 µM
TGI (U251 CNS): > 100 µM
TGI (UACC-257 melanoma): > 100 µM
TGI (UACC-62 melanoma): > 100 µM
TGI (UO-31 renal): > 100 µM

Reference: PubChem BioAssay (NCI)
